Laboratory results as given in patent US9695155B2, “Herbicidal substituted pyrimidinyloxy benzene compounds” (E. I. DU PONT DE NEMOURS AND COMPANY, priority 2013, dated 2017).

Key:
[1] = tested on: barnyardgrass; experiment: Test B flooded paddy test; type: in vivo, Echinochloa crus-galli; details: Flood, 250 g ai/ha; 0 to 100 scale where 0 is no effect and 100 is complete control
How it was run: (§1)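 Plants were grown to the 2-leaf stage, then pots were flooded to 3 cm above the soil and compounds were applied directly into the paddy water. That depth was held throughout, and after 13 to 15 days in the greenhouse injury was rated visually against controls on a 0–100 scale (0 no effect, 100 complete control).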

[2] = tested on: sedge, umbrella; experiment: Test B flooded paddy test; type: in vivo, Cyperus difformis; details: Flood, 250 g ai/ha; 0 to 100 scale where 0 is no effect and 100 is complete control
How it was run: as §1

[3] = tested on: barnyardgrass; experiment: Test C flooded paddy test; type: in vivo, Echinochloa crus-galli; details: Flood, scale 0 to 100 (0 no effect, 100 complete control), 13 to 15 days
Source text: (§2) At time of treatment, test pots were flooded to 3 cm above the soil surface, treated by application of test compounds directly to the paddy water, and then maintained at that water depth for the duration of the test. Treated plants and controls were maintained in a greenhouse for 13 to 15 days, after which time all species were compared to controls and visually evaluated. […] A dash (-) response means no test result.

[4] = tested on: velvetleaf; experiment: Test A preemergence; type: in vivo, Abutilon theophrasti
How it was run: (§3)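 Visual injury scored 0–100 (100 = complete control) against untreated controls about 10 days after treatment in a greenhouse. Test chemicals, formulated with surfactant in non-phytotoxic solvent, were sprayed on soil preemergence or on 2-10 cm, one- to two-leaf plants postemergence.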

[5] = tested on: morningglory; experiment: Test A preemergence; type: in vivo, Ipomoea spp.
How it was run: as §3

[6] = tested on: corn; experiment: Test A preemergence; type: in vivo, Zea mays
How it was run: as §3

[7] = tested on: large (Lg) crabgrass; experiment: Test A preemergence; type: in vivo, Digitaria sanguinalis
How it was run: as §3

[8] = tested on: ducksalad; experiment: Test C flooded paddy test; type: in vivo, Heteranthera limosa; details: Flood, scale 0 to 100 (0 no effect, 100 complete control), 13 to 15 days
Source text: as §2

[9] = tested on: large (Lg) crabgrass; experiment: Test A postemergence; type: in vivo, Digitaria sanguinalis
How it was run: as §3

[10] = tested on: Heteranthera limosa; experiment: Test B flooded paddy test; type: in vivo; details: Flood, 250 g ai/ha; 0 to 100 scale where 0 is no effect and 100 is complete control
How it was run: as §1

[11] = tested on: velvetleaf; experiment: Test A postemergence; type: in vivo, Abutilon theophrasti
How it was run: as §3

[12] = tested on: corn; experiment: Test A postemergence; type: in vivo, Zea mays
How it was run: as §3

[13] = tested on: rice; experiment: Test C flooded paddy test; type: in vivo, Oryza sativa; details: Flood, scale 0 to 100 (0 no effect, 100 complete control), 13 to 15 days
Source text: as §2

[14] = tested on: wheat; experiment: Test A postemergence; type: in vivo, Triticum aestivum
How it was run: as §3

[15] = tested on: pigweed; experiment: Test A postemergence; type: in vivo, Amaranthus retroflexus
How it was run: as §3

[16] = tested on: pigweed; experiment: Test A preemergence; type: in vivo, Amaranthus retroflexus
How it was run: as §3

[17] = tested on: barnyardgrass; experiment: Test A postemergence; type: in vivo, Echinochloa crus-galli
How it was run: as §3

[18] = tested on: rice; experiment: Test B flooded paddy test; type: in vivo, Oryza sativa; details: Flood, 250 g ai/ha; 0 to 100 scale where 0 is no effect and 100 is complete control
How it was run: as §1

[19] = tested on: giant foxtail; experiment: Test A preemergence; type: in vivo, Setaria faberii
How it was run: as §3

[20] = tested on: giant foxtail; experiment: Test A postemergence; type: in vivo, Setaria faberii
How it was run: as §3

[21] = tested on: wheat; experiment: Test A preemergence; type: in vivo, Triticum aestivum
How it was run: as §3

[22] = tested on: barnyardgrass; experiment: Test A preemergence; type: in vivo, Echinochloa crus-galli
How it was run: as §3

[23] = tested on: sedge, umbrella; experiment: Test C flooded paddy test; type: in vivo, Cyperus difformis; details: Flood, scale 0 to 100 (0 no effect, 100 complete control), 13 to 15 days
Source text: as §2

[24] = tested on: morningglory; experiment: Test A postemergence; type: in vivo, Ipomoea spp.
How it was run: as §3

[25] = 500 g ai/ha, 0 to 100 scale where 0 is no effect and 100 is complete control
[26] = 125 g ai/ha, 0 to 100 scale, 0 no effect, 100 complete control

SMILES: C[Si](C)(C)C#Cc1cccc(Oc2ncc(Cl)cn2)c1-n1cc(Br)cn1 [Compound 293]
- Plant response rating, Barnyardgrass [1]: 0
- Plant response rating, Sedge, Umbrella [2]: 80
- Plant response rating, Barnyardgrass ([3]; 31 g ai/ha): 0
- Plant response rating, Barnyardgrass ([3]; 62 g ai/ha): 0
- Plant response rating, Barnyardgrass ([3]; 125 g ai/ha): 0
- Velvetleaf plant response rating (0 to 100 scale) ([4]; 125 g ai/ha): 0
- Velvetleaf plant response rating [4, 25]: 0
- Morningglory plant response rating (0 to 100 scale) ([5]; 125 g ai/ha): 0
- Morningglory plant response rating [5, 25]: 0
- Corn plant response rating (0 to 100 scale) ([6]; 125 g ai/ha): 0
- Corn plant response rating [6, 25]: 0
- Crabgrass, Large plant response rating (0 to 100 scale) ([7]; 125 g ai/ha): 40
- Crabgrass, Large plant response rating [7, 25]: 90
- Plant response rating, Ducksalad ([8]; 31 g ai/ha): 30
- Plant response rating, Ducksalad ([8]; 62 g ai/ha): 40
- Plant response rating, Ducksalad ([8]; 125 g ai/ha): 75
- Plant response rating, Crabgrass, Large [9, 26]: 20
- Plant response rating, Crabgrass, Large [9, 25]: 30
- Plant response rating, Ducksalad [10]: 80
- Plant response rating, Velvetleaf [11, 26]: 60
- Plant response rating, Velvetleaf [11, 25]: 80
- Plant response rating, Corn [12, 26]: 0
- Plant response rating, Corn [12, 25]: 20
- Plant response rating, Rice ([13]; 31 g ai/ha): 0
- Plant response rating, Rice ([13]; 62 g ai/ha): 0
- Plant response rating, Rice ([13]; 125 g ai/ha): 0
- Plant response rating, Wheat [14, 26]: 0
- Plant response rating, Wheat [14, 25]: 0
- Plant response rating, Pigweed [15, 26]: 60
- Plant response rating, Pigweed [15, 25]: 90
- Pigweed plant response rating (0 to 100 scale) ([16]; 125 g ai/ha): 20
- Pigweed plant response rating [16, 25]: 80
- Plant response rating, Barnyardgrass [17, 26]: 10
- Plant response rating, Barnyardgrass [17, 25]: 10
- Plant response rating, Rice [18]: 0
- Foxtail, Giant plant response rating (0 to 100 scale) ([19]; 125 g ai/ha): 20
- Foxtail, Giant plant response rating [19, 25]: 90
- Plant response rating, Foxtail, Giant [20, 26]: 20
- Plant response rating, Foxtail, Giant [20, 25]: 30
- Wheat plant response rating (0 to 100 scale) ([21]; 125 g ai/ha): 0
- Wheat plant response rating [21, 25]: 0
- Barnyardgrass plant response rating (0 to 100 scale, 0 is no effect, 100 is complete control) ([22]; 125 g ai/ha): 0
- Barnyardgrass plant response rating [22, 25]: 10
- Plant response rating, Sedge, Umbrella ([23]; 31 g ai/ha): 60
- Plant response rating, Sedge, Umbrella ([23]; 62 g ai/ha): 75
- Plant response rating, Sedge, Umbrella ([23]; 125 g ai/ha): 85
- Plant response rating, Morningglory [24, 26]: 10
- Plant response rating, Morningglory [24, 25]: 30
